Measurements: US12358863B2, “Nitrogen-containing derivative of substituted phenol hydroxy acid ester, and preparation and use thereof” (priority 2019, dated 2025)

Columns and labels:
Kunming mice [1] = experiment: Determination of therapeutic index (ED50 and LD50, up-and-down method); type: in vivo, mouse; conditions: half male and half female
Method: Determination of therapeutic index (TI) of prodrug molecules: by referring the method in literature (Dixon, W. Staircase bioassay: the up-and-down method. Neurosci. Biobehav. Rev. 1991, 15, 47-50), the half-effective dose (ED50) and half-lethal dose (LD50) of the molecule to be tested were determined in Kunming mice (weighing 25-30 g, half male and half female). The therapeutic index for each molecule was calculated according to the equation: TI=LD50/ED50.

Kunming mice [2] = type: in vivo, mouse; conditions: Table 3; dose 2×ED50, tail vein injection, male Kunming mice
Method: For each drug, 10 male Kunming mice weighing 20-35 g were included, and the dose of each drug was 2×ED50 in mice. After the compound of the present invention and fospropofol were respectively dissolved in saline, the resultant solutions were injected via the mouse tail vein. For propofol, a glucose dilution (5 mg/mL) of a commercially available emulsion of diprivan was selected and injected via the mouse tail vein; while, for another substituted phenol molecule (CAS:1637741-58-2), its 30% fat emulsion was prepared as a medicated emulsion. The concentration of the injectable solution of the compound according to the present invention was 10-15 mg/mL, and the concentration of the injectable solution of fospropofol was 55 mg/mL, while the concentration of the injectable solution of another substituted phenol molecule (CAS:1637741-58-2) was 1 mg/mL. After injection of tested drug, the occurrence time T1 of righting reflex after its disappearance, the duration T2 for the disappearance of righting reflex (i.e. anesthesia time) and the time T3 required for the animal to recover completely after waking up were recorded. Complete recovery refers to the recovery of autonomous activities of animals to the level before administration. In the experiment, animals were not given respiratory support such as oxygen inhalation or intubation.

[3] = Decomposition of prodrugs in mouse plasma in vitro (HPLC of released propofol or other substituted phenol); type: in vitro ADME; conditions: 37° C.
Method: The prodrug to be tested was prepared into a saline solution of 10 mg/mL. 10 μL of drug-containing solution was added to 990 μL of mouse plasma, vortexed for 30 s, and then incubated at 37° C. At 30 s, 1 min, 5 min, 10 min, 30 min, 60 min and 120 min, 50 μL of drug-containing plasma was collected, to which was immediately added 150 μL of acetonitrile to terminate the enzymatic reaction, and then centrifuged at 20000 rpm and 4° C. for 10 min. 50 μL of supernatant was taken out and injected into HPLC, to determine the concentration of propofol by internal standard method. The decomposition rate of the prodrug was calculated from the concentrations of propofol or other substituted phenols. Chromatographic conditions: Agilent Zorbax XdB C18 column (150 mm)×4.6 mm, 5 μm); column temperature 30° C.; the mobile phase, water:acetonitrile (40:60, v/v); fluorescence wavelength: excitation wavelength (Ex) at 276 nm, emission wavelength (EM) at 310 nm; flow rate: 1.2 mL/min; retention time: internal standard (thymol) 3.9 min, propofol 7.4 min. Linear range of propofol or other substituted phenols: 50-35000 ng/mL. Instruments: Waters 2695 high performance liquid chromatograph, Waters 2475 fluorescence detector.

SMILES	TI (therapeutic index) (Kunming mice [1])	T1: the onset time after injection (Kunming mice [2])	T2: the duration of disappearance of righting reflex (Kunming mice [2]) [min]	T3: the time required for righting reflex to recover to autonomous activity (Kunming mice [2]) [min]	Decomposition rates of prodrugs ([3]; 30 s) [%]	Decomposition rates of prodrugs ([3]; 1 min) [%]	Decomposition rates of prodrugs ([3]; 5 min) [%]	Decomposition rates of prodrugs ([3]; 10 min)	Decomposition rates of prodrugs ([3]; 30 min) [%]	Decomposition rates of prodrugs ([3]; 60 min) [%]	Decomposition rates of prodrugs ([3]; 120 min) [%]	Decomposition rates of prodrugs ([3]; 120 min, listed as fopropofol) [%]
CC(C)c1cccc(C(C)C)c1OC(=O)COC(=O)CN1CCCC1.Cl [Compound 42]	3.7	Immediate	6 to 12	1 to 2	91	100	100	100%	100	100	100	–
CC(C)C[C@@H](N)C(=O)OCC(=O)Oc1c(C(C)C)cccc1C(C)C.Cl [Compound 48]	4.1	Immediate	6 to 14	1 to 2	92	100	100	100%	100	100	100	–
CC(C)c1cccc(C(C)C)c1OCOP(=O)(O)O [Fospropofol, fospropofol, reference compound]	2.9	1.5 to 2 min	28 to 45	5 to 8	–	–	–	not decomposed significantly	3	16	38	38
